34 compounds from patent US20090023731A1, “SOLUBLE EPOXIDE HYDROLASE INHIBITORS” (Arete Therapeutics, Inc., priority 2007, published 2009) can be followed below.

Where only a bound is given, the exact number is not on record here.

A word on the melting point: it is the temperature, or range, at which the solid turns liquid.

For series [1], the system named is soluble epoxide hydrolase (sEH). In words: Fluorescent assay for mouse and human soluble epoxide hydrolase (CMNPC substrate). It is filed as biochemical. Here is the method:
Recombinant mouse sEH (MsEH) and human sEH (HsEH) were produced in a baculovirus expression system as previously reported. […] The expressed proteins were purified from cell lysate by affinity chromatography. […] Protein concentration was quantified using the Pierce BCA assay using bovine serum albumin as the calibrating standard.
The IC50s for each inhibitor were according to the following procedure:
Bis/Tris HCl 25 mM pH 7.0 containing 0.1 mg/mL of BSA (buffer A) CMNPC at 0.25 mM in DMSO.
Mother solution of enzyme in buffer A (Mouse sEH at 6 μg/mL and Human sEH at 5 μg/mL). Inhibitor dissolved in DMSO at the appropriate concentration.
In a black 96 well plate, fill all the wells with 150 μL of buffer A.
Add 2 μL of DMSO in well A2 and A3, and then add 2 μL of inhibitor solution in A1 and A4 through A12.
Add […] of buffer A in row A, then mix several time and transfer […] to row B. Repeat this operation up to row H. The […] removed from row H is discarded.
Add […] of buffer A in column 1 and 2, then add […] of enzyme solution to column 3 to 12.
Incubate the plate for 5 minutes in the plate reader at 30° C.
During incubation prepare the working solution of substrate by mixing 3.68 mL of buffer A (4×0.920 mL) with 266 μL (2×133 μL) of substrate solution).
The velocities are used to analyze and calculate the IC50s.

For the compound `O=C(Nc1ccc(C(F)(F)F)cc1)Nc1cccc(OCc2ccccc2)c1` [Compound 37, 1-(3-Benzyloxy-phenyl)-3-(4-trifluoromethyl-phenyl)-urea], the melting point was in the range of 208 to 210 °C. Moreover, the “% Inh” value in series [1] (inhibitor conc. 50 nM) is reported as 99%. The like results for `O=C(Nc1ccc(F)cc1)Nc1cccc(OCc2ccccc2)c1` [Compound 38, 1-(3-Benzyloxy-phenyl)-3-(4-fluoro-phenyl)-urea] were, in that order, 187 to 189 °C and 93%. The like results for `O=C(Nc1ccc(Oc2ccccc2)cc1)Nc1ccc(C(F)(F)F)cc1` [Compound 39, 1-(4-Phenoxy-phenyl)-3-(4-trifluoromethyl-phenyl)-urea] were, in that order, 211 to 213 °C and 90%. The like results for `O=C(Nc1ccc(C(F)(F)F)cc1)Nc1cccc(Oc2ccccc2)c1` [Compound 40, 1-(3-Phenoxy-phenyl)-3-(4-trifluoromethyl-phenyl)-urea] were, in that order, 178 to 181 °C and 96%. In the case of `CC(C)(C)CC(=O)Nc1cccc(OCCCN2CCOCC2)c1` [Compound 44, 3,3-Dimethyl-N-[3-(3-morpholin-4-yl-propoxy)-phenyl]-butyramide], the “% Inh” value in series [1] (inhibitor conc. 5000 nM) stood at 70%. Turning to `O=C(Nc1ccc(OCCCN2CCOCC2)cc1)NC1CCCCC1` [Compound 45, 1-Cyclohexyl-3-[4-(3-morpholin-4-yl-propoxy)-phenyl]-urea], the “% Inh” value in series [1] (inhibitor conc. 50 nM) is 79%.

For `O=C(CC12CC3CC(CC(C3)C1)C2)Nc1ccc(OCCCN2CCOCC2)cc1` [Compound 46, 2-Adamantan-1-yl-N-[4-(3-morpholin-4-yl-propoxy)-phenyl]-acetamide], the “% Inh” value in series [1] (inhibitor conc. 50 nM) is given as 93%. As to `O=C(Nc1cccc(OCCCN2CCOCC2)c1)NC12CC3CC(CC(C3)C1)C2` [Compound 47, 1-Adamantan-1-yl-3-[3-(3-morpholin-4-yl-propoxy)-phenyl]-urea], in series [1] (inhibitor conc. 50 nM), the “% Inh” value turned out to be 99%. Same read-out and setting: in the case of `O=C(NC1CCCC(OCCCN2CCOCC2)C1)NC12CC3CC(CC(C3)C1)C2` (stereo not shown) [Compound 48, 1-Adamantan-1-yl-3-[3-(3-morpholin-4-yl-propoxy)-cyclohexyl]-urea] it was 94%; in that of `O=C(CC12CC3CC(CC(C3)C1)C2)NC1CCCC(OCCCN2CCOCC2)C1` (stereo not shown) [Compound 49, 2-Adamantan-1-yl-N-[3-(3-morpholin-4-yl-propoxy)-cyclohexyl]-acetamide], 79%. On to `O=C(CC12CC3CC(CC(C3)C1)C2)NC1CCC(OCCCN2CCOCC2)CC1` (stereo not shown) [Compound 50, 2-Adamantan-1-yl-N-[4-(3-morpholin-4-yl-propoxy)-cyclohexyl]-acetamide], for which the “% Inh” value in series [1] (inhibitor conc. 500 nM) was 85%. In the case of `O=C(CC1CCCCC1)Nc1cccc(OCCCN2CCOCC2)c1` [Compound 51, 2-Cyclohexyl-N-[3-(3-morpholin-4-yl-propoxy)-phenyl]-acetamide], the “% Inh” value in series [1] (inhibitor conc. 50 nM) was found to be 61%. As to `O=C(CC12CC3CC(CC(C3)C1)C2)Nc1ccc(F)c(OCCCN2CCOCC2)c1` [Compound 52, 2-Adamantan-1-yl-N-[4-fluoro-3-(3-morpholin-4-yl-propoxy)-phenyl]-acetamide], the “% Inh” value in series [1] (inhibitor conc. 500 nM) is 93%.

On to `O=C(Nc1ccc(F)c(OCCCN2CCOCC2)c1)NC12CC3CC(CC(C3)C1)C2` [Compound 53, 1-Adamantan-1-yl-3-[4-fluoro-3-(3-morpholin-4-yl-propoxy)-phenyl]-urea], for which the “% Inh” value in series [1] (inhibitor conc. 50 nM) stood at 92%. Still for that read-out and setting: in the case of `O=C(Nc1ccc(F)c(OCCCN2CCOCC2)c1)NC1CCCCC1` [Compound 54, 1-Cyclohexyl-3-[4-fluoro-3-(3-morpholin-4-yl-propoxy)-phenyl]-urea] it was 83%. Consider `O=C(Nc1cccc(OCCCN2CCOCC2)c1)C12CC3CC(CC(C3)C1)C2` [Compound 55, Adamantane-1-carboxylicacid [3-(3-morpholin-4-yl-propoxy)-phenyl]-amide], for which the “% Inh” value in series [1] (inhibitor conc. 5000 nM) was found to be 90%.

As for `O=C(Nc1cccc(OCCCN2CCOCC2)c1)C1CCCCC1` [Compound 56, Cyclohexanecarboxylicacid [3-(3-morpholin-4-yl-propoxy)-phenyl]-amide], the “% Inh” value in series [1] (inhibitor conc. 5000 nM) is 94%.

In turn, `O=C(Nc1cccc(OCc2ccccc2)c1)NC12CC3CC(CC(C3)C1)C2` [Compound 57, 1-Adamantan-1-yl-3-(3-benzyloxy-phenyl)-urea] had a melting point of 232 to 235 °C. For the same compound, the “% Inh” value in series [1] (inhibitor conc. 50 nM) amounted to 98%.

For `O=C(CNC12CC3CC(CC(C3)C1)C2)Nc1cccc(OCCCN2CCOCC2)c1` [Compound 58, 2-(Adamantan-1-ylamino)-N-[3-(3-morpholin-4-yl-propoxy)-phenyl]-acetamide], in series [1] (inhibitor conc. 500 nM), the “% Inh” value is on record as 81%. With `O=C(Nc1ccc(Oc2cccc(C(=O)O)c2)cc1)NC12CC3CC(CC(C3)C1)C2` [Compound 59, 3-(4-(3-Adamantan-1-ylureido)phenoxy)benzoic acid], the melting point lay in the range of 185 to 187 °C. Moreover, the “% Inh” value in series [1] (inhibitor conc. 5000 nM) came out at 99%. In the case of `O=C(Nc1ccc(Oc2cccc(C(=O)O)c2)cc1)Nc1ccc(C(F)(F)F)cc1` [Compound 60, 3-(4-(3-(4-(trifluoromethyl)phenyl)ureido)phenoxy)benzoic acid], in series [1] (inhibitor conc. 500 nM), the “% Inh” value was determined as 92%.

Regarding `S=C(Nc1cccc(OCCCN2CCOCC2)c1)NC12CC3CC(CC(C3)C1)C2` [Compound 61], the “% Inh” value in series [1] (inhibitor conc. 500 nM) turned out to be 96%. Turning to `O=C(Nc1ccc(Oc2ccc(C(=O)O)cc2)cc1)Nc1ccc(OC(F)(F)F)cc1` [Compound 64, 4-(4-(3-(4-(trifluoromethoxy)phenyl)ureido)phenoxy)benzoic acid], in series [1] (inhibitor conc. 2000 nM), the “% Inh” value was 100%.

As to `O=C(Nc1ccc(Oc2ccc(C(=O)O)cc2)cc1)NC12CC3CC(CC(C3)C1)C2` [Compound 65, 4-(4-(3-(adamantyl)ureido)phenoxy)benzoic acid], the melting point lay in the range of 162 to 166 °C. Also, the “% Inh” value in series [1] (inhibitor conc. 2000 nM) is reported as 100%. Regarding `O=C(Nc1ccc(Oc2ccc(C(=O)O)cc2)cc1)Nc1ccc(C(F)(F)F)cc1` [Compound 66, 4-(4-(3-(4-(trifluoromethyl)phenyl)ureido)phenoxy)benzoic acid], the melting point is above 400 °C. In addition, the “% Inh” value in series [1] (inhibitor conc. 2000 nM) was found to be 100%.

With `O=C(Nc1ccc(Oc2ccc(C(=O)O)cc2)cc1)Nc1cccc(C(F)(F)F)c1` [Compound 67, 4-(4-(3-(3-(trifluoromethyl)phenyl)ureido)phenoxy)benzoic acid], the melting point stood at 318 °C. Also, the “% Inh” value in series [1] (inhibitor conc. 2000 nM) was 99%. Turning to `O=C(Nc1cccc(Oc2ccc(C(=O)O)cc2)c1)NC12CC3CC(CC(C3)C1)C2` [Compound 68], the melting point lay in the range of 152 to 154 °C. Take `O=C(Nc1ccc(C(F)(F)F)cc1)Nc1cccc(Oc2ccc(C(=O)O)cc2)c1` [Compound 69, 4-(3-(3-(4-(trifluoromethyl)phenyl)ureido)phenoxy)benzoicacid]: in series [1] (inhibitor conc. 2000 nM), the “% Inh” value was 100%. On the same count and under the same terms, the figure for `O=C(Nc1cccc(Oc2cccc(C(=O)O)c2)c1)NC12CC3CC(CC(C3)C1)C2` [Compound 70, 3-(3-(3-(adamantyl)ureido)phenoxy)benzoicacid] is 95%; for `O=C(Nc1ccc(C(F)(F)F)cc1)Nc1cccc(Oc2cccc(C(=O)O)c2)c1` [Compound 71, 3-(3-(3-(4-(trifluoromethyl)phenyl)ureido)phenoxy)benzoicacid] it is 98%. Take `O=C(NCCc1ccc(OCc2ccccc2)cc1)NCCC12CC3CC(CC(C3)C1)C2` [Compound 72, 1-(4-(benzyloxy)phenethyl)-3-(adamantylethyl)urea]: the “% Inh” value in series [1] (inhibitor conc. 200 nM) worked out at 89%. For the compound `O=C(NCCc1ccc(OCc2ccccc2)cc1)NCC12CC3CC(CC(C3)C1)C2` [Compound 73, 1-(4-(benzyloxy)phenethyl)-3-(adamantylmethyl)urea], the “% Inh” value in series [1] (inhibitor conc. 200 nM) came to 97%. As to `O=C(Nc1ccc(OC(F)(F)F)cc1)N[C@H]1CC[C@H](Oc2ccc(C(=O)O)cc2)CC1` [Compound 74, 4-((1r,4r)-4-(3-(4-(trifluoromethoxy)phenyl)ureido)cyclohexyloxy)benzoic acid], in series [1] (inhibitor conc. 2000 nM), the “% Inh” value was 100%. On the same count and under the same terms, the figure for `O=C(Nc1ccc(C(F)(F)F)cc1)N[C@H]1CC[C@H](Oc2ccc(C(=O)O)cc2)CC1` [Compound 75] is 95%.
